Measurements taken from patent US10711245B2, “Direct conversion method of human fibroblasts into neural stem cells using small molecules” (KOREA UNIVERSITY RESEARCH AND BUSINESS FOUNDATION, priority 2015, dated 2020).

Test system: human fibroblasts
Test: Marker gene expression by quantitative PCR in human fibroblasts cultured with each single small-molecule compound
Format: cell-based
Details: each compound alone in neurobasal medium (DMEM/F12, N2, B27, bFGF, EGF), markers nestin, sox1, sox2, pax6
Experimental: To investigate the function of each of small-molecule compounds and find an optimal combination of small-molecule compounds, 1×10^5 human fibroblasts were prepared in 60 mm dishes, and on the next day, the cells were cultured in a neurobasal medium (containing DMEM/F12, N2, B27, bFGF, and EGF) supplemented with each of 13 different small-molecule compounds (PD0325901, SB431542, Thiazovivin, Ascorbic acid, PS48, CHIR99021, Deazaneplanocin A, Valproic acid, Forskolin, Tranylcypromine, A8301, 5-AZA, and Purmorphamine). Then, the morphological changes of the cells were observed while the medium was replaced at 2-3-day intervals (FIG. 1). The cells were subcultured at 5-day intervals, and in this stage, the cells were sampled in order to examine gene expression patterns therein. Using the cell sample, the expression patterns of a fibroblast marker (Thy1), neural stem cell markers (nestin, sox1, sox2, pax6), a MET or EMT marker (snail, N-cadherin, E-cadherin), endodermal and mesodermal markers (AFP, GATA4), and a marker (Zsacn4) associated with the maintenance of chromosomal stability, in the cell sample, were analyzed by quantitative PCR (FIG. 2).

SMILES | expressions of the neural stem cell marker genes
Nc1ncn([C@@H]2O[C@H](CO)[C@@H](O)[C@H]2O)c(=O)n1 [5-AZA, 4-amino-1-β-D-ribofuranosyl-1,3,5-triazin-2(1H)-one] | distinctly increased
Cc1cccc(-c2nn(C(=S)Nc3ccccc3)cc2-c2ccnc3ccccc23)n1 [A8301, 3-(6-Methyl-2-pyridinyl)-N-phenyl-4-(4-quinolinyl)-1H-pyrazole-1-carbothioamide] | distinctly increased
Cc1cnc(-c2cnc(NCCNc3ccc(C#N)cn3)nc2-c2ccc(Cl)cc2Cl)[nH]1 [CHIR99021, 6-[[2-[[4-(2,4-dichlorophenyl)-5-(5-methyl-1H-imidazol-2-yl)-2-pyrimidinyl]amino]ethyl]amino]-3-pyridinecarbonitrile] | distinctly increased
Nc1nccc2c1ncn2[C@@H]1C=C(CO)[C@@H](O)[C@H]1O [Deazaneplanocin A, 5R-(4-amino-1H-imidazo[4,5-c]pyridin-1-yl)-3-(hydroxymethyl)-3-cyclopentene-1S,2R-diol] | distinctly increased
NC(=O)c1ccc(-c2nc(-c3ccc4c(c3)OCO4)c(-c3ccccn3)[nH]2)cc1 [SB431542, 4-[4-(3,4-Methylenedioxyphenyl)-5-(2-pyridyl)-1H-imidazol-2-yl]benzamide] | distinctly increased
O=C(NCc1ccccc1)c1csc(Nc2ccncn2)n1 [Thiazovivin, N-(phenylmethyl)-2-(4-pyrimidinylamino)-4-thiazolecarboxamide] | distinctly increased
CCCC(CCC)C(=O)O [Valproic acid, 2-propyl-pentanoic acid] | distinctly increased
